In ChEMBL document CHEMBL4373716, “Curcumin as tyrosine kinase inhibitor in cancer treatment” (Eur J Med Chem, 2019) one finds solubility, Cmax and Tmax data, which are given here for 1 compound.

Data set [1] can be described thus: Aqueous solubility of the compound. The format is physicochemical.
Data set [2] can be described thus: Cmax in human at […], po after 3 months. The format is ADME, organism-based. On the set-up: route oral. Particulars: in vivo.
Data set [3] is described as follows: Tmax in human at […], po after 3 months. In kind it is ADME, organism-based. The settings on record: in vivo.

Converted amounts (≈) assume the structure as drawn.

The compound `COc1cc(/C=C/C(=O)CC(=O)/C=C/c2ccc(O)c(OC)c2)ccc1O` [CURCUMIN] yielded a solubility in data set [1] of 1 to 10 mg/mL (≈ 2.71 to 27.1 mM). The Cmax in data set [2] was 1.77 µM. In data set [3], the Tmax was in the range of 1 to 2 h.
